From ChEMBL document CHEMBL5058564, “EUbOPEN Chemogenomics Library 2 (Incucyte)” (2022)
Where a SMILES comes first, the peptide text is derived from it. [ ]: non-standard residue; d: D form.

Tests used:
Format in all cases: toxicity, cell-based
Fibroblast = experiment: Incucyte cell viability with human fibroblast; details: 10 µM, compound concentration 10 uM
U2OS = experiment: Incucyte cell viability with U2OS; details: human, 10 µM, compound concentration 10 uM
HEK-293T = experiment: Incucyte cell viability with HEK293T; details: human, 10 µM, compound concentration 10 uM
[1] = 6 h, replicate number 1, timepoint 6 hours
[2] = 12 h, replicate number 1, timepoint 12 hours
[3] = 18 h, replicate number 1, timepoint 18 hours
[4] = 24 h, replicate number 1, timepoint 24 hours
[5] = 0 h, replicate number 1, timepoint 0 hours
[6] = 0 h, replicate number 2, timepoint 0 hours
[7] = 12 h, replicate number 2, timepoint 12 hours
[8] = 18 h, replicate number 2, timepoint 18 hours
[9] = 24 h, replicate number 2, timepoint 24 hours
[10] = 6 h, replicate number 2, timepoint 6 hours
Further: unitless GR value; below 1 slowed growth and below 0 cell loss.

Structure (SMILES) | Growth Rate (Fibroblast; [1]) | Growth Rate (Fibroblast; [2]) | Growth Rate (U2OS; [1]) | Growth Rate (U2OS; [2]) | Growth Rate (U2OS; [3]) | Growth Rate (U2OS; [4]) | Growth Rate (HEK-293T; [5]) | Growth Rate (HEK-293T; [6]) | Growth Rate (HEK-293T; [3]) | Growth Rate (HEK-293T; [8]) | Growth Rate (HEK-293T; [4]) | Growth Rate (HEK-293T; [9]) | Growth Rate (U2OS; [5]) | Growth Rate (U2OS; [6]) | Growth Rate (Fibroblast; [5]) | Growth Rate (Fibroblast; [6]) | Growth Rate (U2OS; [8]) | Growth Rate (HEK-293T; [2]) | Growth Rate (U2OS; [10]) | Growth Rate (U2OS; [9]) | also measured
Cc1sc2c(c1C)C(c1ccc(Cl)cc1)=N[C@H](CC(=O)OC(C)(C)C)c1nnc(C)n1-2 | -0.25 | 0.45 | 0.83 | 0.95 | 0.97 | 0.92 | 0.38 | 0.63 | 0.85 | 0.87 | 0.81 | 0.86 |  |  |  |  |  |  |  |  | Growth Rate (Fibroblast; [3]): 0.98; Growth Rate (Fibroblast; [4]): 0.98; Growth Rate (HEK-293T; [7]): 0.95
CN[C@@H]1CCc2[nH]c3ccc(C(N)=O)cc3c2C1.O.O=C(O)CCC(=O)O [FROVATRIPTAN SUCCINATE] | 0.36 |  | 0.73 | 0.48 | 0.74 | 0.63 | -0.07 | 0.02 |  | 0.94 | 0.98 | 0.82 | -0.34 | 0.89 |  |  |  |  |  |  | Growth Rate (Fibroblast; [3]): 0.81; Growth Rate (Fibroblast; [4]): 0.66; Growth Rate (HEK-293T; [10]): 0.9
CCCCC/C=C\C/C=C\C/C=C\C/C=C\CCCC(=O)NCC(=O)O [ARACHIDONOYL GLYCINE] | 0.18 | 0.75 | 0.64 | 0.64 | 0.72 | 0.76 | 0.53 | 0.42 | 0.64 | 0.93 | 0.52 | 0.83 | -0.29 | 0.28 | 0.41 | 0.25 | 0.97 | 0.8 |  |  | Growth Rate (Fibroblast; [10]): 0.75; Growth Rate (Fibroblast; [7]): 0.99; Growth Rate (Fibroblast; [3]): 0.78; Growth Rate (Fibroblast; [8]): 0.93; Growth Rate (Fibroblast; [4]): 0.8; Growth Rate (Fibroblast; [9]): 0.79; Growth Rate (U2OS; [7]): 0.9
CCS(=O)(=O)Nc1ccc(Oc2ccc(F)cc2F)c(-c2cn(C)c(=O)c3[nH]ccc23)c1 [MIVEBRESIB] | -0.16 |  |  |  |  |  |  |  | 0.75 | 0.41 | 0.4 | 0.28 |  | -0.35 |  |  |  |  | 0.85 | 0.95 | Growth Rate (Fibroblast; [10]): 0.52; Growth Rate (HEK-293T; [7]): 0.78
Oc1c(CN2CCN(c3ccccn3)CC2)cc(Cl)c2cccnc12 |  |  | 0.19 | 0.01 | -0.04 | -0.07 |  | -1 | 0.11 |  | 0.17 |  | 0.03 | -0.6 |  |  | 0.1 | -0.03 | -0.14 | 0.08 | Growth Rate (Fibroblast; [4]): 0.65; Growth Rate (Fibroblast; [9]): 0.89; Growth Rate (U2OS; [7]): 0.21; Growth Rate (HEK-293T; [1]): -0.48
CC(=O)NCCc1c(Cc2ccccc2)[nH]c2ccccc12 [LUZINDOLE] | 0.87 | 0.94 | 0.72 |  |  |  |  |  |  |  |  |  | 0.42 |  |  | 0.86 | 0.76 | 0.96 | 0.96 | 0.88 | Growth Rate (U2OS; [7]): 0.87; Growth Rate (HEK-293T; [10]): 0.58
S=C(NCCCc1c[nH]cn1)NCCCN(Cc1ccc(Cl)c(Cl)c1)c1ccc(Br)cn1 | -0.23 | 0.17 |  |  | 0.88 | 0.83 |  |  | 0.15 | 0.19 | 0.15 | 0.2 |  | -1 | 0.28 | 0.91 | 0.68 | 0.08 |  | 0.67 | Growth Rate (Fibroblast; [10]): 0.5; Growth Rate (Fibroblast; [7]): 0.18; Growth Rate (Fibroblast; [3]): -0.18; Growth Rate (Fibroblast; [8]): 0.55; Growth Rate (Fibroblast; [4]): -0.16; Growth Rate (Fibroblast; [9]): 0.74; Growth Rate (U2OS; [7]): 0.84; Growth Rate (HEK-293T; [1]): 0.16; Growth Rate (HEK-293T; [10]): -0.21
CN(c1ncccc1CNc1ccnc(-c2nc3c(F)c(Cl)ccc3[nH]2)n1)S(C)(=O)=O | -0.47 | 0.38 | 0.1 | 0.15 | 0.62 | 0.78 | -0.02 | 0.48 | 0.93 | 0.99 |  | 0.81 | -0.62 | -0.69 |  | 0.75 | 0.87 | 0.97 | 0.61 | 0.72 | Growth Rate (Fibroblast; [3]): 0.27; Growth Rate (Fibroblast; [4]): 0.36; Growth Rate (Fibroblast; [9]): 0.92; Growth Rate (U2OS; [7]): 0.66; Growth Rate (HEK-293T; [1]): 0.84; Growth Rate (HEK-293T; [7]): 0.72
CC(C)C[C@@H]1NC(=O)[C@@H](C(C)C)NC(=O)[C@@H]2CCCN2C(=O)[C@@H](CC(=O)O)NC(=O)[C@@H](Cc2c[nH]c3ccccc23)NC1=O [BQ-123] (cyclo(L[dW][dD]P[dV])) | 0.81 | 0.87 | 0.51 | 0.65 | 0.49 | 0.93 |  | 0.79 | 0.91 |  | 0.97 |  |  | -1 | 0.41 | 0.34 |  | 0.92 | 0.68 |  | Growth Rate (Fibroblast; [10]): 0.18; Growth Rate (Fibroblast; [7]): 0.89; Growth Rate (Fibroblast; [3]): 0.98; Growth Rate (Fibroblast; [8]): 0.94; Growth Rate (HEK-293T; [1]): 0.89
CCOc1ccc(Cc2nc3cc(C(=O)N(CC)CC)ccc3n2CC2CCCCC2)cc1 |  |  |  |  |  |  | 0.75 | 0.57 | 0.86 |  | 0.93 |  | -0.21 | -1 | 0.96 |  | 1 | 0.75 |  |  | Growth Rate (Fibroblast; [10]): 0.61; Growth Rate (Fibroblast; [7]): 0.58; Growth Rate (Fibroblast; [8]): 0.98; Growth Rate (HEK-293T; [10]): 0.53
COc1ccc(-n2c(C)c([N+](=O)[O-])c3ccc(O)cc32)cc1 |  |  | -0.36 | 0.46 | 0.7 | 0.63 | 0.39 |  |  |  |  |  |  | -1 |  |  | 0.71 |  | 0.75 | 0.67 | Growth Rate (Fibroblast; [10]): 0.98; Growth Rate (Fibroblast; [8]): 0.87; Growth Rate (Fibroblast; [9]): 0.5; Growth Rate (U2OS; [7]): 0.73
CC1(COc2ccc3c(c2)ncn3-c2ccc3cccc(N4CCC(N)CC4)c3n2)COC1 [CRENOLANIB] |  |  |  |  | 0.87 | 0.54 | -0.26 | -0.11 | -0.28 | -0.21 | -0.22 | -0.19 |  |  | -0.8 | -0.75 | 0.92 | -0.32 |  | 0.8 | Growth Rate (HEK-293T; [1]): -0.46; Growth Rate (HEK-293T; [10]): -0.5; Growth Rate (HEK-293T; [7]): -0.23
Cc1cccc(S(=O)(=O)N(C)[C@H](C)CCN2CCC(C)CC2)c1.Cl | 0.83 |  |  |  |  |  |  | 0.65 | 0.84 | 0.87 | 0.69 | 0.66 | 0.29 | -0.95 | 0.08 |  | 0.97 |  | 0.95 |  | Growth Rate (Fibroblast; [10]): 0.52; Growth Rate (HEK-293T; [10]): 0.92
CC(C)C[C@@H](NC(=O)[C@H](Cc1ccccc1)NC(=O)CNC(=O)[C@@H](C)NC(=O)[C@@H](N)Cc1ccc(O)cc1)C(=O)O [DADLE] |  | 0.89 |  |  |  |  | 0.71 | 0.5 | 0.72 | 1 | 0.8 | 0.91 |  | 0.25 | 0.72 | -0.04 | 0.98 | 0.61 | 0.82 | 0.99 | Growth Rate (U2OS; [7]): 0.93; Growth Rate (HEK-293T; [1]): 0.4
